Results reported in US9765115B2, “Inhibitors of metastasis, methods of generating such inhibitors and their therapeutic applications” (Board of Supervisors of Louisiana State University acting …, priority 2011, dated 2017).

System: PC-3-CTR-wt cells
Assay: Matrigel in vitro invasion assay
Type: cell-based
Conditions: 50 nM CT, 48 h
Method: Invasion experiments were conducted in Matrigel™ invasion chambers as previously described (Sabbisetti et al., 2005).
CT increases invasiveness, and even induces an invasive phenotype in non-invasive prostate cancer cells. The role of PDZ-binding motif in CT-stimulated invasion was examined. FIG. 2C depicts CTR-C PDZ-binding motif mutation and effects on cell invasion. PC-3V, PC-3 CTRwt and PC-3 CTRΔESS cells were added to upper insert of invasion chambers with or without 50 nM CT, and cells that passed through the Matrigel™ barrier were counted after 48 h. The results are expressed as mean number of invaded cells per 400× field ±SEM (n=6; *p<0.05 (PC-3V v PC-3CTR-wt); $ p<0.05 (PC-3CTR-wt v PC-3CTRΔESS); $$-p<0.05 (PC-3CTRwt+CT v PC-3CTRΔESS+CT) (one-way ANOVA and Newman-Keul's test)). Expression of CTRwt in PC-3 cells increased invasion by 2.5-fold (FIG. 2C).
As shown above, CTR binds to ZO-1 through PDZ interaction (i.e. PDZ ligand on C-tail of CTR binds to the PDZ domain of ZO-1). To attenuate this binding, ZO-1 was saturated with a small C-terminal peptide of CTR sequence containing the PDZ-binding motif. Since ZO-1 is an intracellular membrane protein, the interfering peptide was delivered inside the plasma membrane. It has been shown that trans-activating transcriptional activator (TAT) protein (86-mer polypeptide) from HIV-1 enters mammalian cells when added to the surrounding media (Frankel et al., 1988; Green et al., 1989). Certain small regions of such proteins (10-16-mers) called protein transduction domains (PTDs), also efficiently traverse biological membranes (Elliott et al., 1997). Therefore, a fusion peptide Pep 1 was synthesized of TAT-peptide sequences of HIV virus and CTR-C(N-[…]-C (SEQ ID NO:2), CTR-C sequence underlined). The first experiment was to see if Pep I binds to ZO-1 in reversible fashion. For this, amino acid Y in Pep I was labeled with ^125I, and the binding with ZO-1 analyzed in the presence/absence of unlabeled Pep I (1000×; 20 μM). PC-3CTR-ZO-1-MYC cells were first incubated with unlabeled Pep I or control peptide (20 μM) for 5 min. The cells were then incubated with ^125I-pep I or C for 25 min. The cells were then washed in IP buffer, treated with DSP, and lysed. ZO-1 IPs were obtained, fractionated on SDS-PAGE, and autoradiographed. […] Next, whether Pep I competes with CTR for ZO-1 binding was tested. For this, PC-3-CTR-wt cells were treated with CT (50 nM) and or Pep I (50 μM) for 15 min. The CTR IPs were then immunoblotted and probed for ZO-1 immunoreactivity. […] Next, the biological impact of this phenomenon was examined by testing the effect of Pep I on CTR-stimulated invasion.
The binding of ZO-1 and CTR can be attenuated by saturating ZO-1 with a small C-terminal peptide of CTR sequence containing the PDZ ligand. Since ZO-1 is an intracellular membrane protein, the interfering peptide must penetrate plasma membrane to interact with ZO-1. As discussed above, fusion peptides of small TAT peptides (12-mer) and six (Pep I) or eight amino acids (Pep II) of C-terminal of CTR were synthesized. Control peptides were TAT peptides (12-mer) containing random amino acid sequence of equivalent size (6-mer). […] Thus, these two peptides (sequences given below) could be used therapeutically to attenuate or inhibit metastasis in cancerous cells.

calcitonin [CT]
additional increase in invasion: 2.5 fold
